Measured values reported in ChEMBL document CHEMBL1121401, “Potential antitumor agents. 33. Quantitative structure--activity relationships for mutagenic activity and antitumor activity of substituted 4'-(9-acridinylamino)methanesulfonanilide derivatives” (J Med Chem, 1980).
Activity calls are given as the source filed them. No cut-off for these calls is given here.

Legend:
Mus musculus [1] = species: Mus musculus
Description: Drug dose in (mg/kg)/day to provide an increase in life span of 40% was determined; nr refers to Particular level of biological response required not reached before drug toxicity supervened

Mus musculus [2] = species: Mus musculus; remark: listed apart in the source
Description: Drug dose in (mg/kg)/day to provide an increase in life span of 40% was determined;nr refers to Particular level of biological response required not reached before drug toxicity supervened

Salmonella typhimurium = settings: Salmonella enterica subsp. enterica serovar Typhimurium

Description for physchem: Ionization constant (pKa)

| Structure (SMILES) | pKa (physchem) | Log 1/D40 (Mus musculus [1]) | Log 1/D40 (Mus musculus [2]) | Log M50 (Salmonella typhimurium) |
| --- | --- | --- | --- | --- |
| COC(=O)Nc1ccc2c(Nc3ccc(NS(C)(=O)=O)cc3)c3ccccc3nc2c1 | 7.48 |  |  |  |
| CS(=O)(=O)Nc1ccc(Nc2c3ccccc3nc3cccc(Cl)c23)cc1 | 5.86 |  |  |  |
| CS(=O)(=O)Nc1ccc(Nc2c3ccccc3nc3cc(Cl)ccc23)cc1 | 6.57 |  |  |  |
| Cc1cccc2nc3ccccc3c(Nc3ccc(NS(C)(=O)=O)cc3)c12 | 6.43 |  |  |  |
| Cc1ccc2c(Nc3ccc(NS(C)(=O)=O)cc3)c3ccccc3nc2c1 | 7.49 |  |  |  |
| CS(=O)(=O)Nc1ccc(Nc2c3ccccc3nc3ccc(C(N)=O)cc23)cc1 | 6.34 | Not reached |  |  |
| Cc1ccc2nc3ccccc3c(Nc3ccc(NS(C)(=O)=O)cc3)c2c1 | 7.23 | Not reached |  |  |
| COc1ccc2c(Nc3ccc(NS(C)(=O)=O)cc3)c3ccccc3nc2c1 | 7.57 |  |  |  |
| COc1ccc2nc3ccccc3c(Nc3ccc(NS(C)(=O)=O)cc3)c2c1 | 6.87 | Not reached |  |  |
| CCCCCCS(=O)(=O)Nc1ccc(Nc2c3ccccc3nc3ccccc23)cc1 |  | Not reached |  |  |
| CS(=O)(=O)Nc1ccc(Nc2c3ccccc3nc3cc(N=[N+]=[N-])ccc23)cc1 | 7 |  |  |  |
| COc1cccc2c(Nc3ccc(NS(C)(=O)=O)cc3)c3ccccc3nc12 | 7.15 |  |  |  |
| CS(=O)(=O)Nc1ccc(Nc2c3ccccc3nc3cc(S(C)(=O)=O)ccc23)cc1 | 5.65 | Not reached |  |  |
| CNc1ccc2c(Nc3ccc(NS(C)(=O)=O)cc3)c3ccccc3nc2c1 | 9.3 |  |  |  |
| CS(=O)(=O)Nc1ccc(Nc2c3ccccc3nc3ccccc23)cc1Cl | 6.44 | Not reached |  |  |
| CS(=O)(=O)Nc1ccc(Nc2c3ccccc3nc3c(Cl)cccc23)cc1 | 5.92 |  | Not reached |  |

| Structure (SMILES) | pKa (physchem) | Log 1/D40 (Mus musculus [1]) | Log 1/D40 (Mus musculus [2]) | Log M50 (Salmonella typhimurium) |
| --- | --- | --- | --- | --- |
| CS(=O)(=O)Nc1ccc(Nc2c3ccccc3nc3ccc([N+](=O)[O-])cc23)cc1 |  | Not reached |  |  |
| CS(=O)(=O)Nc1ccc(Nc2c3ccccc3nc3cc(NS(C)(=O)=O)ccc23)cc1 |  |  |  | inactive |
| CS(=O)(=O)Nc1ccc(Nc2c3ccccc3nc3cnccc23)cc1 |  | Not reached |  |  |
| CS(=O)(=O)Nc1ccc(Nc2c3ccccc3nc3cc(Br)ccc23)cc1 | 6.56 |  |  |  |
| Cc1cc(NS(C)(=O)=O)ccc1Nc1c2ccccc2nc2ccccc12 | 7.38 |  |  |  |
| CS(=O)(=O)Nc1ccc(Nc2c3ccccc3nc3ccccc23)c(Cl)c1 | 6.34 | Not reached |  |  |
| C[N+](C)=[N+]=Nc1ccc2c(Nc3ccc(NS(C)(=O)=O)cc3)c3ccccc3nc2c1 | 7.13 |  |  |  |
| CS(=O)(=O)Nc1ccc(Nc2c3ccccc3nc3ccc(Cl)cc23)cc1 | 6.42 | Not reached |  |  |
| CS(=O)(=O)Nc1ccc(Nc2c3ccccc3nc3cc(C#N)ccc23)cc1 | 5.75 | Not reached |  | inactive |
| Cc1cc(Nc2c3ccccc3nc3ccccc23)ccc1NS(C)(=O)=O | 7.08 | Not reached |  |  |
| COc1cc(Nc2c3ccccc3nc3ccccc23)ccc1NS(C)(=O)=O [o-Amsacrine] | 7.03 | Not reached |  |  |
| CS(=O)(=O)Nc1ccc(Nc2c3ccccc3nc3ccccc23)cc1[N+](=O)[O-] |  | Not reached |  |  |
| CS(=O)(=O)Nc1ccc(Nc2c3ccccc3nc3ccccc23)c(N)c1 | 7.65 |  |  |  |
| CS(=O)(=O)Nc1ccc(Nc2c3ccccc3nc3ccccc23)c([N+](=O)[O-])c1 | 4.86 | Not reached |  | inactive |
| COc1cccc2nc3ccccc3c(Nc3ccc(NS(C)(=O)=O)cc3)c12 |  | Not reached |  |  |
